Measurements: patent publication US8436039B2, “Inhibitors of the ATB(0,+) transporter and uses thereof” (Georgia Health Sciences University Research Institute, Inc., priority 2008, dated 2013)
Each block holds one molecule with its values, some of them ahead of it.

Experiments:
Type in all cases: cell-based
mouse ATB^0,+ [1] = biological target: T1, mouse ATB^0,+ (Mus musculus, UniProt Q9JMA9); test: Inhibition of ATB^0,+-mediated glycine uptake in HRPE cells expressing cloned mouse ATB^0,+; details: glycine 10 μM; inhibitor 1 mM; 30 min; NaCl; HRPE cells
T1 sequence (Q9JMA9 1-638): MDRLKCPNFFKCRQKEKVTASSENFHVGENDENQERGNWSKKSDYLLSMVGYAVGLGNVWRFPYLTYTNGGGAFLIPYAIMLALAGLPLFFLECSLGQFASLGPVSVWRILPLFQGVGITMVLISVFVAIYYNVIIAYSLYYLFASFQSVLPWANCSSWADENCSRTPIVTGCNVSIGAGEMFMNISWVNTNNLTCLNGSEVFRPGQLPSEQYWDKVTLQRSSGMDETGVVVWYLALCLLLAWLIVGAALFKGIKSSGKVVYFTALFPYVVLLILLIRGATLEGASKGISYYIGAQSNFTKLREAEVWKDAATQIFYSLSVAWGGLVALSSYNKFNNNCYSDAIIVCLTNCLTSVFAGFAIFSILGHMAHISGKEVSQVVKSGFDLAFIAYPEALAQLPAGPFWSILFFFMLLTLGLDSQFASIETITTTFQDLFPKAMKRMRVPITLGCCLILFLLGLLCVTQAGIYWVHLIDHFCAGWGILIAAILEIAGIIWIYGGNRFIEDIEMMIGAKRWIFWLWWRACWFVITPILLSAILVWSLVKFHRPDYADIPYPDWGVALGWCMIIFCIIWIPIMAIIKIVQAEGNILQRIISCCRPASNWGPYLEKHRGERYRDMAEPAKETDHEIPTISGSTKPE

mouse ATB^0,+ [2] = biological target: T1, mouse ATB^0,+; test: Substrate-induced inward currents in X. laevis oocytes expressing mouse ATB^0,+ (two-microelectrode voltage clamp); details: voltage clamp, NaCl; for inward currents induced in ATB^0,+-expressing oocytes: 2.5 mM
Method: (§1) Capped cRNA from the cloned mouse or human ATB^0,+ cDNA was synthesized using the mMESSAGE mMACHTNE kit (Ambion, Austin, Tex., U.S.A.). Mature oocytes (stage IV or V) from X. laevis were injected with 50 ng of cRNA. Uninjected oocytes served as controls. The oocytes were used for electrophysiological studies 3-6 days after cRNA injection. Electrophysiological studies were performed by the two-microelectrode voltage-clamp method (Nakanishi et al., 2001, J. Physiol. 532, 297-304). Oocytes were superfused with an NaCl-containing buffer (100 mM NaCl, 2 mM KCl, 1 mM MgCl2, 1 mM CaCl2, 3 mM Hepes, 3 mM Mes and 3 mM Tris, pH 7.5), followed by the same buffer containing tryptophan derivatives. The membrane potential was clamped at −50 mV. The differences between the steady-state currents measured in the presence and absence of substrates were considered as the substrate-induced currents. In the analysis of the saturation kinetics of substrate-induced currents, the kinetic parameter K0.5 (i.e. substrate concentration necessary for induction of half-maximal current) was calculated by fitting the values of the substrate-induced currents to the Michaelis-Menten equation. The Na^+ and Cl^− activation kinetics of substrate-induced currents were analysed by measuring the substrate-specific currents in the presence of increasing concentrations of Na^+ (concentration of Cl^− kept constant at 100 mM) or in the presence of increasing concentrations of Cl^− (concentration of Na^+ kept constant at 100 mM). In these experiments, the composition of the superfusion buffer was modified to contain 2 mM potassium gluconate, 1 mM MgSO4 and 1 mM calcium gluconate in place of KCl, MgCl2 and CaCl2 respectively. The data from these experiments were analysed by the Hill equation to determine the Hill coefficient (h; number of Na^+ and Cl^− ions involved in the activation process). The kinetic parameters were determined by using the commercially available computer program Sigma Plot, version 6.0 (SPSS, Chicago, Ill., U.S.A.). Uninjected oocytes were used to determine the currents induced by tryptophan derivatives due to entry via transporters that may be constitutively expressed in the oocytes. At a concentration of 2.5 mM, the currents induced by these compounds were in the range of 0-3 nA in uninjected oocytes. These currents were less than 2% of the corresponding currents induced in ATB^0,+ cRNA-injected oocytes. Therefore the endogenous currents associated with the constitutively expressed transporters were not considered in the analysis of kinetic parameters of ATB^0,+ transport activity.
The above studies with the mammalian cell expression system have focused on the interaction of 1-methyltryptophan and other tryptophan derivatives with ATB^0,+ by examining the effects of these compounds on the transporter-mediated glycine uptake. These studies have shown convincingly that 1-methyltryptophan interacts with ATB^0,+, with the L-isomer having much higher affinity for the transporter than the D-isomer. However, these studies have not shown whether or not 1-methyltryptophan is actually a transportable substrate for ATB^0,+. It is possible that 1-methyltryptophan inhibits ATB^0,+-mediated glycine uptake simply by blocking the interaction of glycine with the substrate-binding site of the transporter, rather than by actually competing with glycine for the transport process. […] We wanted to know whether 1-methyltryptophan can actually be transported by ATB^0,+. For this, we used the X. laevis oocyte expression system. Since the transport process mediated by ATB^0,+ is electrogenic, exposure of ATB^0,+-expressing oocytes to transportable substrates will induce an inward current in an Na^+- and Cl^−-dependent manner. Exposure of the same oocytes to blockers will interfere with currents induced by transportable substrates, but will not induce currents by themselves. […]

ATB^0,+ in MCF7 cells = biological target: T2, ATB^0,+ in MCF7 cells (Homo sapiens, UniProt Q9UN76); test: D-serine uptake in MCF7 cells (constitutively expressed ATB^0,+); details: MCF7 cells; for IC50: D-serine 5 μM, NaCl, read-out: IC50 for inhibition of D-serine uptake
T2 construct: host or cells: MCF7
T2 sequence (Q9UN76 1-642): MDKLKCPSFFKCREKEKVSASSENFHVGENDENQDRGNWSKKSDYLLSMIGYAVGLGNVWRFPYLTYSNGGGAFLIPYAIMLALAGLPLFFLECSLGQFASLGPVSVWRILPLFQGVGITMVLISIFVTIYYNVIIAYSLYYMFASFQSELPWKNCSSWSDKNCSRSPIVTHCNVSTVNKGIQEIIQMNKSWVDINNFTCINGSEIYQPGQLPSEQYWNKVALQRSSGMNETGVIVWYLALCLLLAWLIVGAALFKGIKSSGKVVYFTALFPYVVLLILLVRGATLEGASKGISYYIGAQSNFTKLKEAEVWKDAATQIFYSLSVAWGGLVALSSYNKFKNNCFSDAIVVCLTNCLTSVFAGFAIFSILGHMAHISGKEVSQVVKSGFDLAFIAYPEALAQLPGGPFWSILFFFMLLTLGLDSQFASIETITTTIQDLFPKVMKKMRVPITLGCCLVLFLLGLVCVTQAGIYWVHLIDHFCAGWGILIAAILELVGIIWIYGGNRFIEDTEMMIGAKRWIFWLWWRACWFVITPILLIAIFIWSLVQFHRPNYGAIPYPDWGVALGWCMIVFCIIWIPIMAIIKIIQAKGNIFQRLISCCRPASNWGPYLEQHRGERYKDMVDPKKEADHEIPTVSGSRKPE
Method: Cells were seeded and grown in 24-well culture plates to confluency and used for uptake measurements. Radiolabelled glycine or D-serine was used as the substrate to determine the transport function of ATB^0,+. Uptake measurements were routinely made in an NaCl-containing buffer (25 mM Hepes/Tris buffer, pH 7.4, 140 mM NaCl, 5.4 mM KCl, 1.8 mM CaCl2, 0.8 mM MgSO4 and 5 mM glucose). Ion dependence of the transport process was evaluated by studying the uptake activity in buffers of varying compositions. NaCl in the uptake buffer was replaced iso-osmotically with NMDG (N-methyl-D-glucamine) chloride to prepare an Na^+-free buffer, and with sodium gluconate to prepare a Cl^−-free buffer. Linear uptake rates were determined by employing a 10 min incubation period, based on time course experiments. Na^+-activation kinetics was analysed by studying the uptake rates in the presence of varying concentrations of Na^+ (2.5-140 mM) in the uptake buffer with Cl^− concentration kept constant at 140 mM. This was done by replacing NaCl with appropriate concentrations of NMDG. Cl^−-activation kinetics was analysed by studying the uptake rates in the presence of varying concentrations of Cl^− (2.5-100 mM) in the uptake buffer with Na^+ concentration kept constant at 140 mM. This was done by replacing NaCl with appropriate concentrations of sodium gluconate. Uptake data for Na^+- and Cl^−-activation kinetics were analysed using the Hill equation, and values for K0.5 for Na^+ and Cl^− and for the Hill coefficient (h) were determined by linear and non-linear regression methods. A commercially available software program (Sigma Plot, version 6.0; SPSS) was used for this purpose. Substrate specificity of the uptake process was evaluated by monitoring the effects of unlabelled amino acids (5 mM) on the uptake of radiolabelled glycine or D-serine (5 μM: radiolabelled substrate, 0.05 μM; unlabelled substrate, 4.95 μM).
The kinetic nature of inhibition of D-serine uptake by α-methyl-DL-tryptophan was investigated in MCF7 cells by monitoring the uptake at increasing concentrations of D-serine (range, 50-2000 μM) in the absence and presence of 100 μM α-methyl-DL-tryptophan. The kinetic parameters were calculated by linear regression (Eadie-Hofstee plots) and the values were confirmed by non-linear regression.
We employed a similar experimental strategy to detect specifically the transport function of ATB^0,+ in the remaining seven cell lines. […] We also investigated the effect of α-methyl-DL-tryptophan on D-serine uptake in MCF7 cells.

human LAT1/4F2hc = human LAT1/4F2hc (Homo sapiens, UniProt Q01650); test: Inhibition of LAT1 transport function: L-valine uptake in HRPE cells co-expressing human LAT1 and human 4F2hc; details: 1 mM; L-[14C]valine 0.75 μM; 5 min
human ATB^0,+ = biological target: T3, human ATB^0,+ (Homo sapiens, UniProt Q9UN76); test: Block of inward currents induced by amino acid mixture simulating plasma in X. laevis oocytes expressing human ATB^0,+; details: even at 1 mM; amino acid mixture simulating plasma
T3 construct: The human ATB^0,+ cDNA was cloned from an MCF7 cell (a human mammary epithelial cancer cell line) cDNA library; expressed in transfected cells; host or cells: Xenopus laevis oocytes injected with 50 ng capped cRNA
T3 sequence (Q9UN76 1-642): T2 sequence (Q9UN76 1-642)
Method: as §1
These studies with α-methyl-DL-tryptophan as a blocker of ATB^0,+ were carried out with L-tryptophan at sub-saturating concentrations. […] Therefore, using the Xenopus oocyte heterologous expression system, we monitored the transport activity of human ATB^0,+ in the presence of an amino acid mixture consisting of 18 different amino acids, each at its respective physiological concentration found in plasma (Glew et al., 2004, Clin. Chim. Acta 342, 179-185) (Table 1). Inward currents were detected under these conditions in oocytes expressing human ATB^0,+. […] We then monitored the ability of α-methyl-DL-tryptophan to block the inward currents induced by the same mixture of amino acids in oocytes expressing human ATB^0,+ (FIG. 4B). […]

human LAT1/4F2hc, sequence (Q01650 whole entry): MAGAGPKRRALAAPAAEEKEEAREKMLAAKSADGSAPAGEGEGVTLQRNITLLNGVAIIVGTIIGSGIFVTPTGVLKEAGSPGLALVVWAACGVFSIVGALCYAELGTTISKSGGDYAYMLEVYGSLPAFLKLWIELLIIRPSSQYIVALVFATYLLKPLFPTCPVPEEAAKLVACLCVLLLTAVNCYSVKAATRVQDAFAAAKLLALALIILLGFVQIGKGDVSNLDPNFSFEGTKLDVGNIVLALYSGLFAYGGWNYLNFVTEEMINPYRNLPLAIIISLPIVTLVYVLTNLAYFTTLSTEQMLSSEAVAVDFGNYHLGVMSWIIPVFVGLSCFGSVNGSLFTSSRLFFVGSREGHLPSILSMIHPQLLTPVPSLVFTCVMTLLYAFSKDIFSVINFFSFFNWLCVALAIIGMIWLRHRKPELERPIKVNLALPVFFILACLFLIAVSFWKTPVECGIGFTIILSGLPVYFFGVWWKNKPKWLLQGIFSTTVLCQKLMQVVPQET
human LAT1/4F2hc, sequence (P08195 102-630 partner): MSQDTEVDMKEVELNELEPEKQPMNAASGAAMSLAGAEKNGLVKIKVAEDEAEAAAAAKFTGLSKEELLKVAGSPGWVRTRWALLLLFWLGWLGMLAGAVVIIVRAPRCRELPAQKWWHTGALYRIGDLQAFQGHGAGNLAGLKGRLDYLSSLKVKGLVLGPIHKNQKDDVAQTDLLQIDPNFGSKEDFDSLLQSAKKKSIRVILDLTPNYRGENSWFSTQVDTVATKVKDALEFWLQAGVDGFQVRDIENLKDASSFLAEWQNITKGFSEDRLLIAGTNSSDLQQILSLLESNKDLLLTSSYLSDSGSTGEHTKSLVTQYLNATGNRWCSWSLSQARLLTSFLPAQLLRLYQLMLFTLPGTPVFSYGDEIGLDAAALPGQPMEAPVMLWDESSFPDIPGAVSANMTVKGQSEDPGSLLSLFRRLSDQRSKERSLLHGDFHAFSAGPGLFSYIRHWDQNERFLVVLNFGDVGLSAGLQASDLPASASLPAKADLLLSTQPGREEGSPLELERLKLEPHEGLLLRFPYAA

Compound: Cc1cccc2[nH]cc(CC(N)C(=O)O)c12 (racemic) [4-methyl-DL-tryptophan]
- inhibition of ATB^0,+-specific glycine uptake (mouse ATB^0,+ [1]): inhibited

Compound: Cc1ccc2[nH]cc(CC(N)C(=O)O)c2c1 (racemic) [5-methyl-DL-tryptophan]
- inhibition of ATB^0,+-specific glycine uptake (mouse ATB^0,+ [1]): inhibited

Compound: Cc1ccc2c(CC(N)C(=O)O)c[nH]c2c1 (racemic) [6-methyl-DL-tryptophan]
- inhibition of ATB^0,+-specific glycine uptake (mouse ATB^0,+ [1]): inhibited

Compound: N[C@@H](Cc1c[nH]c2ccc(O)cc12)C(=O)O [5-hydroxy-L-tryptophan]
- inhibition of ATB^0,+-specific glycine uptake (mouse ATB^0,+ [1]): inhibited

Compound: NCCc1c[nH]c2ccc(O)cc12 [5-hydroxytryptamine]
- inward currents induced in ATB^0,+-expressing oocytes (mouse ATB^0,+ [2]): did not induce currents
- inhibition of ATB^0,+-specific glycine uptake (mouse ATB^0,+ [1]): not able to inhibit

- IC50 (ATB^0,+ in MCF7 cells): 250 to 500 µM
Compound: N=C(N)NCCC[C@H](N)C(=O)O [Arginine]

- Kt for D-serine uptake (ATB^0,+ in MCF7 cells; absence of the blocker): 517 ± 38 µM
- Vmax for D-serine uptake (ATB^0,+ in MCF7 cells; absence of the blocker): 32.4±1.5 nmol/mg of protein per 15 min
Compound: N[C@H](CO)C(=O)O [D-serine]

Compound: N[C@H](Cc1c[nH]c2ccccc12)C(=O)O [D-tryptophan]
- Michaelis constant (K0.5) of substrate-induced currents (mouse ATB^0,+ [2]; saturation kinetics): 288 ± 48 µM
- inhibition of ATB^0,+-specific glycine uptake (mouse ATB^0,+ [1]): inhibited

Compound: COC(=O)[C@@H](N)Cc1c[nH]c2ccccc12 [L-tryptophan methyl ester]
- inhibition of ATB^0,+-specific glycine uptake (mouse ATB^0,+ [1]): inhibited

Compound: CC(=O)N[C@@H](Cc1c[nH]c2ccccc12)C(=O)O [N-acetyl-L-tryptophan]
- inward currents induced in ATB^0,+-expressing oocytes (mouse ATB^0,+ [2]): did not induce currents
- inhibition of ATB^0,+-specific glycine uptake (mouse ATB^0,+ [1]): not able to inhibit

- IC50 (ATB^0,+ in MCF7 cells): 250 to 500 µM
Compound: NCCCC[C@H](N)C(=O)O [lysine]

Compound: N[C@@H](Cc1c[nH]c2ccccc12)C(=O)O [tryptophan]
- effect on cDNA-induced valine uptake (human LAT1/4F2hc): abolished completely

- inhibition at 1000 µM (human ATB^0,+): ≤ 40%
Compound: C[C@@](N)(Cc1c[nH]c2ccccc12)C(=O)O [α-methyl-D-tryptophan, α-Methyl-D-Tryptophan]
